Source: US20030113901A1, “Cell production” (priority 2000, published 2003)

Assays:
[1] = tested on: in vitro-derived neurectoderm (EBM7); assay: Immunohistochemistry, TH: dopaminergic neuron formation from in vitro-derived neurectoderm (EBM7); format: cell-based; conditions: EBM7s, 10 ng/ml NGF days 7-10, 200 μM dopamine days 10-14 where present, day 14
Experimental: FIG. 2: The culture of in vitro-derived neurectoderm in the presence of NGF and dopamine increases dopaminergic neuron formation. EBM^7s were seeded for 3 days in 50% DMEM/F12, 10 ng/ml FGF2, 0.1% ITSS, 1% FCS, and 10 ng/ml NGF, and for an additional 4 days in DMEM/F12, 0.1% ITSS, 200 μM ascorbic acid, with or without 200 μM dopamine. The resulting EBMs were analysed by immunohistochemistry using an anti-TH antibody. Positive staining for TH (dark regions) indicated dopaminergic neurons. A, EBM^7s cultured in the absence of NGF and dopamine; B, EBM^7s cultured in the presence of NGF; C, EBM^7s cultured in the presence of NGF and dopamine.
(§1) EBs were grown in the presence of the conditioned medium MEDII for 7 days (EBM^7) as previously described in International Patent Application PCT/AU99/00265 to applicants, the entire disclosure of which is incorporated herein by reference.
(§2) ES cells were seeded at a density of 1×10^5 cells/cm^2 In suspension culture in bacterial petri dishes in DMEM containing 50% MEDII. DMEM is defined as Dulbecco's Modified Eagles Medium (Gibco BRL), pH 7.4, containing high glucose and supplemented with 10% foetal calf serum (FCS; Commonwealth Serum Laboratories), 40 μg/ml gentamycin, 1 mM L-glutamine, 0.1 mM β-mercaptoethanol (β-ME). […]
(§3) Antibody staining for NF200 and tyrosine hydroxylase (TH) was detected by alkaline phoaphatase activity. […]

[2] = tested on: in vitro-derived neurectoderm (EBM7); assay: Immunohistochemistry, NF200: neuron formation from in vitro-derived neurectoderm (EBM7); format: cell-based; conditions: EBM7s grown in the presence of 10 ng/ml NGF vs absence; anti-NF200 antibody, day 14
Experimental: FIG. 1: The culture of in vitro-derived neurectoderm in the presence of NGF increases neuron formation. EBM^7s were seeded for 3 days in 50% DMEM/F12, 10 ng/ml FGF2, 0.1% ITSS, 1% FCS, in the presence or absence of 10 ng/ml NGF, and for an additional 4 days in 50% DMEM/F12, 0.1% ITSS. The resulting EBMs were analysed by immunohistochemistry using an anti-NF200 antibody. Positive staining for NF200 (dark regions) indicated neurons. A, EBM^7s cultured in the absence of NGF; B, EBM^7s cultured in the presence of NGF.
as §1
as §2, with “(β-ME). The resulting cell aggregates (EBMs) were split 1:2 after 2 days and seeded into fresh DMEM containing 50% MEDII.” for “(β-ME).”
as §3

Compound | TH positive cells (anti-TH antibody staining) [1] | proportion of cells staining positive for NF200 [2]
NCCc1ccc(O)c(O)c1 [dopamine, reference compound] | significant increase | 
NGF: growth factor from the neural growth factor (NGF) family, used at 10 ng/ml | only a small proportion | significantly increased
